Experimental data as given in patent publication US9849138B2, “1,4-benzodiazepone-2,5-diones and related compounds with therapeutic properties” (The Regents of the University of Michigan, priority 2009, dated 2017).

Key:
[1] = target: ROCK-II (h, amino acids 11-552) (Homo sapiens (Human), UniProt O75116); experiment: ROCK-II (h) inhibition assay; format: biochemical; conditions: [γ-32P-ATP] filter assay, 40 minutes at room temperature, read-out: ROCK2 IC50
Description: ROCK-II (h) Inhibition Assay:
In a final reaction volume of 25 μL, ROCK-II (h, amino acids 11-552) (5-10 mU) was incubated with 50 mM Tris pH 7.5, 0.1 mM EGTA, 30 μM […], 10 mM magnesium acetate and [γ-^32P-ATP] (specific activity approx. 500 cpm/pmol, concentration as required). The reaction was initiated by the addition of the MgATP mix. After incubation for 40 minutes at room temperature, the reaction was stopped by the addition of 5 μL of a 3% phosphoric acid solution. 10 μL of the reaction was then spotted onto a P30 filter-mat and washed three times for 5 minutes in 75 mM phosphoric acid and once in methanol prior to drying and scintillation counting.

[2] = system: ROCK; conditions: competition with intracellular micromolar ATP; cited from earlier work
[3] = system: ventricular hypertrophy and function; conditions: Dahl salt-sensitive rats; cited from earlier work
[4] = system: blood pressure; conditions: spontaneously hypertensive, renal hypertensive and deoxycortisone acetate salt hypertensive rats; cited from earlier work
[5] = system: neointimal formation; conditions: rats; cited from earlier work
[6] = system: coronary stenosis; conditions: porcine, long term treatment; cited from earlier work
[7] = system: infarct size and neurologic deficit; conditions: rat stroke model; cited from earlier work

Chain of ROCK-II (h, amino acids 11-552) (O75116 11-552): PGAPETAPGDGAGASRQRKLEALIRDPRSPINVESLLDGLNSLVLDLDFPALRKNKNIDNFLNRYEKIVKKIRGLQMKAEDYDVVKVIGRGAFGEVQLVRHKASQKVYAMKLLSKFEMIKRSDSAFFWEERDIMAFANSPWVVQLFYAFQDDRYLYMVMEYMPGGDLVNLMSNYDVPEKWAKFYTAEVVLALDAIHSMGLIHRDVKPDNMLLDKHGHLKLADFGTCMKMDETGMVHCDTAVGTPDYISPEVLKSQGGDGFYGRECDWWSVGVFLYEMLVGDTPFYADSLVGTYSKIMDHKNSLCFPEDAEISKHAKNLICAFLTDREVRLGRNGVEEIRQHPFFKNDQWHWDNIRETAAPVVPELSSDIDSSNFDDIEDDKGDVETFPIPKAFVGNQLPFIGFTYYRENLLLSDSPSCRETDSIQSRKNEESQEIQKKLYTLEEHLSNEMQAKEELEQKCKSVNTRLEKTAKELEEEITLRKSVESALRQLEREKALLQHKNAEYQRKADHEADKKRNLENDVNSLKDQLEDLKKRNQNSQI

Q: For `C[C@@]1(Cc2ccc(-c3ccncc3)cc2)NC(=O)c2cc(Cl)ccc2NC1=O` [Compound 2, (S)-7-chloro-3-methyl-3-(4-(pyridin-4-yl)benzyl)-3,4-dihydro-1H-benzo[e][1,4]diazepine-2,5-dione], which IC50 [1] is on record?
A: The IC50 was greater than 10 µM.

Q: With `CN1C(=O)[C@@H](Cc2ccc(-c3ccncc3)cc2)NC(=O)c2cccc(Cl)c21` [Compound 5, (R)-9-chloro-1-methyl-3-(4-(pyridin-4-yl)benzyl)-3,4-dihydro-1H-benzo[e][1,4]diazepine-2,5-dione] as the molecule, how does the IC50 [1] read?
A: The IC50 was 1 µM.

Q: With `C[C@@H](N)[C@H]1CC[C@H](C(=O)Nc2ccncc2)CC1` [Compound Y-27632, Y-27632] as the molecule, how does the “decrease in activity in cellular assays as compared to in vitro activities” value [2] read?
A: The value was 100-1,000 fold.

Q: And the “effect on ventricular hypertrophy and function” value [3]?
A: The value was “improve ventricular hypertrophy and function”.

Q: And the “effect on blood pressure” value [4]?
A: Its value is “significantly decrease blood pressure”.

Q: And the “effect on neointimal formation” value [5]?
A: Its value is “inhibited neointimal formation”.

Q: Which “effect on coronary stenosis” value [6] does the source give for `O=S(=O)(c1cccc2cnccc12)N1CCCNCC1` [fasudil] here?
A: The value was “progressively reduce coronary stenosis”.

Q: And the “effect on infarct size and neurologic deficit” value [7]?
A: Its value is “reduce both the infarct size and neurologic deficit”.
